Reference: patent US10093623B2, “Cyclic amides as MetAP-2 inhibitors” (MERCK PATENT GmbH, priority 2012, dated 2018)

What follows are compounds tested against MetAP-2 (Homo sapiens, UniProt P50579) (assay: MetAP-2 activity measurement (coupled enzymatic reactions, Met-Arg-Ser substrate, dianisidine detection at 450 nm)). Details: Inhibition of MetAP-2; read-out: IC50 enzyme.
Format: biochemical
How it was run: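 Rate read from the linear part of the 450 nm absorbance trace. Dianisidine oxidation by peroxidase reports H2O2 made when amino acid oxidase acts on methionine cleaved from MAS tripeptide, one mol dye per mol Met; extinction coefficient gives molar activity.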

Sequence of MetAP-2 (P50579 whole entry, species assumed): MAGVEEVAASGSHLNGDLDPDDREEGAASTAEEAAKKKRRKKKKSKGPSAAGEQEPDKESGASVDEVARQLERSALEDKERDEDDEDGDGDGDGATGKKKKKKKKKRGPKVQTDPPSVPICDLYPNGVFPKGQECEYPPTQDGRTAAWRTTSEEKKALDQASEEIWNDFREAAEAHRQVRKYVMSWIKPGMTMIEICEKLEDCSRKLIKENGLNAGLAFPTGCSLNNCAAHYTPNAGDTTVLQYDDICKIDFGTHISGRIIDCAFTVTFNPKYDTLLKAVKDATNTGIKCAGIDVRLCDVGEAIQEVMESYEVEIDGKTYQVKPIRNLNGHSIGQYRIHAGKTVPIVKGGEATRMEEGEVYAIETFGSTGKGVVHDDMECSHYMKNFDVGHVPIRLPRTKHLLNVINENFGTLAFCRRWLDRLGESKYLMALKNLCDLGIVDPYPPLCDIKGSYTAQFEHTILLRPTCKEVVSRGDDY

IC50 | Compound
1000 to 10000 nM | O=C(NCc1cc(F)cc(Cl)c1)[C@@]1(O)CCCCN(c2ccccc2)C1=O [A66, N-(3-chloro-5-fluorobenzyl)-(S)-3-hydroxy-2-oxo-1-phenylazepane-3-carboxamide]
10 to 1000 nM | COc1ccc(N2CCC(O)(C(=O)NCc3cc(F)cc(Cl)c3)C2=O)cn1 (centres unmarked) [A138, N-(3-Chloro-5-fluorobenzyl)-3-hydroxy-1-(6-methoxypyridin-3-yl)-2-oxopyrrolidine-3-carboxamide]
> 10000 nM | CC(=O)N1CCC2(CC1)CN(c1ccccc1)C(=O)[C@@]2(O)C(=O)NCc1cc(F)cc(Cl)c1 [A71, N-(3-Chloro-5-fluorobenzyl)-(S)-8-acetyl-4-hydroxy-3-oxo-2-phenyl-2,8-diazaspiro[4.5]decane-4-carboxamide]
10 to 1000 nM | N#Cc1cc2cc(N3CCC(O)(C(=O)NCc4cc(F)cc(Cl)c4)C3=O)ccc2[nH]1 (centres unmarked) [A217, N-(3-Chloro-5-fluorobenzyl)-1-(2-cyano-1H-indol-5-yl)-3-hydroxy-2-oxopyrrolidine-3-carboxamide]
10 to 1000 nM | O=C(NCc1cc(F)cc(Cl)c1)C1(O)CCN(c2cnc3[nH]c(C(F)(F)F)cc3c2)C1=O (centres unmarked) [B76, N-(3-Chloro-5-fluorobenzyl)-3-hydroxy-2-oxo-1-(2-trifluoro-methyl-1H-pyrrolo[2,3-b]pyridin-5-yl)pyrrolidine-3-carboxamide]
> 10000 nM | OC1(CNCc2cc(F)cc(F)c2)CCCN(Cc2ccccc2)C1 (centres unmarked) [B44, 1-Benzyl-3-[(3,5-difluorobenzylamino)methyl]-piperidin-3-ol]
10 to 1000 nM | O=C1Nc2ccc(N3CC[C@](O)(C(=O)NCc4cc(F)cc(Cl)c4)C3=O)cc2C1(F)F [A286, N-(3-Chloro-5-fluorobenzyl)-(S)-1-(3,3-difluoro-2-oxo-2,3-dihydro-1H-indol-5-yl)-3-hydroxy-2-oxopyrrolidine-3-carboxamide]
10 to 1000 nM | O=C1CCc2cc(N3CC[C@](O)(C(=O)NCCc4cccc(F)c4)C3=O)ccc2N1 [B6, N-[2-(3-Fluorophenyl)ethyl]-(S)-3-hydroxy-2-oxo-1-(2-oxo-1,2,3,4-tetrahydroquinolin-6-yl)-pyrrolidine-3-carboxamide]
10 to 1000 nM | NC(=O)c1cccc(NC(=O)c2cccc(N3CCC(O)(C(=O)NCc4cc(F)cc(Cl)c4)C3=O)c2)c1 (centres unmarked) [A69, N-(3-Chloro-5-fluorobenzyl)-1-[3-(3-carbamoylphenylcarbamoyl)-phenyl]-3-hydroxy-2-oxo-pyrrolidine-3-carboxamide]
> 10000 nM | O=C1CCc2cc(NC(=O)C3CCN(c4ccc5c(c4)CCC(=O)N5)C3=O)ccc2N1 (centres unmarked) [A158, N-(2-Oxo-1,2,3,4-tetrahydro-quinolin-6-yl)-2-oxo-1-(2-oxo-1,2,3,4-tetrahydroquinolin-6-yl)-pyrrolidine-3-carboxamide]
10 to 1000 nM | O=C1CCc2cc(N3CC[C@](O)(C(=O)NCc4c(F)ccc(F)c4Cl)C3=O)ccc2N1 [A244, N-(2-Chloro-3,6-difluorobenzyl)-(S)-3-hydroxy-2-oxo-1-(2-oxo-1,2,3,4-tetrahydroquinolin-6-yl)-pyrrolidine-3-carboxamide]
10 to 1000 nM | O=C1CCc2cc(N3CC[C@](O)(C(=O)NCc4cc(F)c(F)cc4Cl)C3=O)ccc2N1 [A234, N-(2-Chloro-4,5-difluorobenzyl)-(S)-3-hydroxy-2-oxo-1-(2-oxo-1,2,3,4-tetrahydroquinolin-6-yl)-pyrrolidine-3-carboxamide]
> 10000 nM | O=C(NCc1ccccn1)[C@@]1(O)CCCN(Cc2cccc(F)c2F)C1=O [A259, N-(Pyridin-2-ylmethyl)-(S)-1-(2,3-difluorobenzyl)-3-hydroxy-2-oxopiperidine-3-carboxamide]
10 to 1000 nM | O=C(NCc1cc(F)cc(Cl)c1)C1(O)CCN(c2cc(C(F)(F)F)ccc2F)C1=O (centres unmarked) [B26, N-(3-Chloro-5-fluorobenzyl)-1-(2-Fluoro-5-trifluoromethyl-phenyl)-3-hydroxy-2-oxo-pyrrolidine-3-carboxamide]
> 10000 nM | O=C(c1cccc(N2CC[C@@](O)(C(=O)NCc3cc(F)cc(Cl)c3)C2=O)c1)N1CCOCC1 [A74, N-(3-Chloro-5-fluorobenzyl)-(R)-3-hydroxy-1-[3-(morpholine-4-carbonyl)phenyl]-2-oxopyrrolidine-3-carboxamide]
1000 to 10000 nM | CC(=O)NC1CCCC(N2CCC(O)(C(=O)NCc3cc(F)cc(Cl)c3)C2=O)C1 (centres unmarked) [A126, N-(3-Chloro-5-fluorobenzyl)-1-(3-acetylaminocyclohexyl)-3-hydroxy-2-oxopyrrolidine-3-carboxamide]
10 to 1000 nM | NC(=O)c1cc2cc(N3CCC(O)(C(=O)NCc4cc(F)cc(Cl)c4)C3=O)ccc2[nH]1 (centres unmarked) [A211, 5-[3-(3-Chloro-5-fluorobenzylcarbamoyl)-3-hydroxy-2-oxopyrrolidin-1-yl]-1H-indole-2-carboxamide]
> 10000 nM | CN(C)CCCNC(=O)[C@@]1(O)CCN(c2ccccc2)C1=O [A64, N-(3-Dimethylaminopropyl)-(S)-3-hydroxy-2-oxo-1-phenylpyrrolidine-3-carboxamide]
1000 to 10000 nM | O=C(NCc1cc(F)cc(Cl)c1)C1(O)CCCN(c2cc(C(F)(F)F)ccc2F)C1=O (centres unmarked) [B67, N-(3-Chloro-5-fluorobenzyl)-1-(2-fluoro-5-trifluoromethyl-phenyl)-3-hydroxy-2-oxo-piperidine-3-carboxamide]

IC50 | Compound
10 to 1000 nM | O=C1N(c2ccccc2)CCCC1(O)CNCc1cc(F)cc(Cl)c1 (centres unmarked) [B32, 3-[(3-Chloro-5-fluorobenzylamino)methyl]-3-hydroxy-1-phenylpiperidin-2-one]
10 to 1000 nM | O=C(NCCO)c1cc2cc(N3CC[C@](O)(C(=O)NCc4cc(F)cc(Cl)c4)C3=O)ccc2[nH]1 [B121, N-(2-hydroxyethyl)-5-[(S)-3-(3-chloro-5-fluorobenzyl-carbamoyl)-3-hydroxy-2-oxo-pyrrolidin-1-yl]-1H-indole-2-carboxamide]
10 to 1000 nM | O=C1N(Cc2ccccc2)CCC[C@]1(O)CNCc1cc(F)cc(Cl)c1 [B54, (S)-1-Benzyl-3-[(3-chloro-5-fluorobenzylamino)methyl]-3-hydroxypiperidin-2-one]
10 to 1000 nM | CC(=O)Nc1ccc(N2CC[C@](O)(C(=O)NCc3cccc(F)c3Cl)C2=O)cn1 [B9, N-(2-Chloro-3-fluorobenzyl)-(S)-1-(6-acetylaminopyridin-3-yl)-3-hydroxy-2-oxopyrrolidine-3-carboxamide]
> 10000 nM | O=C(NCc1cc(F)cc(Cl)c1)[C@]1(O)CCN(OCc2ccccc2)C1=O [B138, N-(3-Chloro-5-fluorobenzyl)-(R)-1-benzyloxy-3-hydroxy-2-oxo-pyrrolidine-3-carboxamide]
1000 to 10000 nM | O=C(NCc1cc(F)cc(Cl)c1)C1(O)CCCN(Cc2ccccc2)C1 (centres unmarked) [B16, N-(3-Chloro-5-fluorobenzyl)-1-benzyl-3-hydroxypiperidine-3-carboxamide]
> 10000 nM | CCNC(=O)c1cc2cc(N3CC[C@@](O)(C(=O)NCc4cc(F)cc(Cl)c4)C3=O)ccc2o1 [A195, N-(3-Chloro-5-fluorobenzyl)-(R)-1-(2-ethylcarbamoylbenzofuran-5-yl)-3-hydroxy-2-oxopyrrolidine-3-carboxamide]
> 10000 nM | O[C@]1(CNCc2ccc(F)cc2)CCCN(Cc2ccccc2)C1 [B21, (S)-1-Benzyl-3-[(4-fluorobenzylamino)methyl]-piperidin-3-ol]
10 to 1000 nM | COC(=O)c1cc(N2CCC(O)(C(=O)NCc3cc(F)cc(Cl)c3)C2=O)cnc1C (centres unmarked) [A100, Methyl 5-[3-(3-chloro-5-fluorobenzylcarbamoyl)-3-hydroxy-2-oxopyrrolidin-1-yl]-2-methylnicotinate]
> 10000 nM | O=C(NCc1cc(F)cc(Cl)c1)C1(O)CCN(CC2CNC2)C1=O (centres unmarked) [A218, N-(3-Chloro-5-fluorobenzyl)-1-azetidin-3-ylmethyl-3-hydroxy-2-oxopyrrolidine-3-carboxamide]
> 10000 nM | O=C(NCCc1ccc(Oc2ccccc2)cc1)[C@@]1(O)CCN(c2ccccc2)C1=O [A60, N-[2-(4-Phenoxyphenyl)ethyl]-(S)-3-hydroxy-2-oxo-1-phenyl-pyrrolidine-3-carboxamide]
10 to 1000 nM | O=C(NCc1cc(F)cc(Cl)c1)C1(O)CCN(c2cnc3[nH]cc(C(F)(F)F)c3c2)C1=O (centres unmarked) [B104, N-(3-Chloro-5-fluorobenzyl)-3-hydroxy-2-oxo-1-(3-trifluoro-methyl-1H-pyrrolo[2,3-b]pyridin-5-yl)pyrrolidine-3-carboxamide]
10 to 1000 nM | O=C(NCc1cc(F)cc(Cl)c1)[C@@]1(O)CCN(CCc2ccccc2)C1=O [A90, N-(3-Chloro-5-fluorobenzyl)-(S)-3-hydroxy-2-oxo-1-phenethyl-pyrrolidine-3-carboxamide]
1000 to 10000 nM | CN(CCO)C(=O)c1cccc(N2CC[C@](O)(C(=O)NCc3cc(F)cc(Cl)c3)C2=O)c1 [A93, N-(3-Chloro-5-fluorobenzyl)-(S)-3-hydroxy-1-{3-[(2-hydroxy-ethyl)methylcarbamoyl]phenyl}-2-oxopyrrolidine-3-carboxamide]
10 to 1000 nM | CCOC(=O)c1cc2cc(N3CCC(O)(C(=O)NCc4cc(F)cc(Cl)c4)C3=O)ccc2[nH]1 (centres unmarked) [A205, Ethyl 5-[3-(3-chloro-5-fluorobenzylcarbamoyl)-3-hydroxy-2-oxopyrrolidin-1-yl]-1H-indol-2-carboxylate]
10 to 1000 nM | CNC(=O)c1cccc(N2CC[C@](O)(C(=O)NCc3cc(F)cc(Cl)c3)C2=O)c1 [A161, N-(3-Chloro-5-fluorobenzyl)-(S)-3-hydroxy-1-(3-methyl-carbamoylphenyl)-2-oxo-pyrrolidine-3-carboxamide]
> 10000 nM | O=C(O)CN1CCC(O)(C(=O)NCc2cc(F)cc(Cl)c2)C1=O (centres unmarked) [A203, [3-(3-Chloro-5-fluorobenzylcarbamoyl)-3-hydroxy-2-oxopyrrolidin-1-yl]-acetic acid]
10 to 1000 nM | CC(C)(C)OC(=O)N1CCC(n2cc(N3CCC(O)(C(=O)NCc4cc(F)cc(Cl)c4)C3=O)cn2)CC1 (centres unmarked) [A170, tert-Butyl 4-{4-[3-(3-chloro-5-fluorobenzylcarbamoyl)-3-hydroxy-2-oxopyrrolidin-1-yl]-pyrazol-1-yl}-piperidine-1-carboxylate]
> 10000 nM | O=C(NCc1cc(F)cc(Cl)c1)C1(O)CCN([C@H]2CCNC2)C1=O (stereo partly drawn) [A233, N-(3-Chloro-5-fluorobenzyl)-(S)-3-hydroxy-2-oxo-[1,3′]bipyrrolidinyl-3-carboxamide]
